Counter-ions that a name gives are not always drawn. Like-named read-outs stand apart in the source and are kept apart here. Values belong to the compound of their own block, whether it stands above or below them.
Assays:
[1] = test system: AsPC-1 cells containing homozygous KRAS-G12D activating mutation; assay: Cellular phospho-ERK assay with 10% FBS (Examples 107a-256); type: cell-based
Experimental: 5% CO2 for 2 hours. […] Assay plates were read on a EnVision Multimode Plate Reader (PerkinElmer) and the ratio of p-Erk vs total Erk in each well was used as the final readout.

[2] = target: KRAS protein containing G12D mutation (Homo sapiens (Human), UniProt P01116, G12D); assay: SOS-catalyzed nucleotide exchange assay (GNE), TR-FRET; type: biochemical; conditions: biotinylated KRAS G12D, SOS and GTP, 60-minute incubation
KRAS protein containing G12D mutation, sequence (P01116 other isoform, or with tags, fused parts or gaps G12D (already in the parent)): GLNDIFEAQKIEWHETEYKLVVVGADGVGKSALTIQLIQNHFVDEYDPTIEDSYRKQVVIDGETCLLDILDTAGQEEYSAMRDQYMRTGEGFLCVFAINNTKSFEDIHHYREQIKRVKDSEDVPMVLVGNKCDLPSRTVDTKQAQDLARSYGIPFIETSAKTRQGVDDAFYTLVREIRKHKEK
Experimental: Compounds are added to this complex and then after a 60-minute incubation time the mixture is treated with SOS and unlabeled GTP. Small molecule inhibitors stabilize the Bodipy-GDP complex whereas the untreated protein rapidly exchanges Bodipy-GDP for unlabeled GTP resulting in reduced TR-FRET signal.
This solution is referred to as biotinylated KRAS G12D stock solution.

[3] = read-out: IC50 (nM) pERK (cell with FBS 10%), AsPC-1 cells, 10% fetal bovine serum, 2 hours, ratio of p-Erk vs total Erk
[4] = Homo sapiens, ASPC1, 2 h, read-out: IC50 (nM) pERK (cell with FBS 10%), AsPC-1 cells, 10% fetal bovine serum, 2 hours, ratio of p-Erk vs total Erk

Structure (SMILES): C[C@]12CC[C@H](CN(c3nc(OCC4(CN5CCCC(O)(C(F)(F)F)C5)CC4)nc4c(F)c(-c5cc(O)cc6cccc(Cl)c56)c(F)cc34)C1)N2 (mixture of isomers) [Ex. 207, rac-1-((1-(((7-(8-chloro-3-hydroxynaphthalen-1-yl)-6,8-difluoro-4-((1S,5R)-1-methyl-3,8-diazabicyclo-[3.2.1]octan-3-yl)quinazolin-2-yl)oxy)methyl)cyclo-propyl)methyl)-3-trifluoromethyl)piperidin-3-ol]
IC50 [1, 3]: 30000 nM
IC50 [2]: 767 nM

Structure (SMILES): Cc1cc2[nH]nc(C#N)c2c(-c2c(F)cc3c(N4C[C@H]5CC[C@@H](C4)N5)nc(OC[C@@]45CCCN4C[C@H](F)C5)nc3c2F)c1C(F)(F)F (single isomer, unassigned) [227b]
IC50 [1, 3]: 32.6 nM
IC50 [2]: 1.02 nM

Structure (SMILES): C#Cc1c(F)ccc2cccc(-c3c(F)cc4c(N5CC6CC[C@@](C)(C5)N6)nc(OCC56CCCN5C(COC(=O)N(C)C)CC6)nc4c3F)c12 (single isomer, unassigned) [242a]
IC50 [1, 3]: 135 nM
IC50 [2]: 1.15 nM

Structure (SMILES): C#Cc1c(F)ccc2cccc(-c3c(F)cc4c(N5CC6CC[C@@](C)(C5)N6)nc(OCC56CCCN5C(COC(=O)N(C)C)CC6)nc4c3F)c12 (single isomer, unassigned) [242b]
IC50 [1, 3]: 1080 nM
IC50 [2]: 93.5 nM

Structure (SMILES): Cc1cc(N)nc(-c2c(Cl)cc3c(N4CC5CC(O)C(C4)N5)nc(OC[C@@]45CCCN4C[C@H](F)C5)nc3c2F)c1C(F)(F)F (single isomer, unassigned) [249b]
IC50 [1, 4]: 360 nM
IC50 [2]: 1.52 nM

Structure (SMILES): Cc1nc2[nH]nc(C)c2c(-c2c(F)cc3c(N4C[C@H]5CC[C@@H](C4)N5)nc(OC[C@@]45CCCN4C[C@H](F)C5)nc3c2F)c1C(F)(F)F (single isomer, unassigned) [250b]
IC50 [1, 3]: 63.1 nM
IC50 [2]: 1.54 nM

Structure (SMILES): C#Cc1c(F)ccc2cc(N)nc(-c3c(F)cc4c(N5C[C@H]6CC[C@@H](C5)N6)nc(OC[C@@]56CCCN5C[C@H](F)C6)nc4c3F)c12 (single isomer, unassigned) [252a]
IC50 [1, 4]: 64.3 nM
IC50 [2]: 0.85 nM

IC50 [1, 3]: 30000 nM
IC50 [2]: 648 nM
Structure (SMILES): CN(C)CC1(COc2nc(N3C[C@H]4CC[C@@](C)(C3)N4)c3cc(F)c(-c4cc(O)cc5ccccc45)c(F)c3n2)CC1C(=O)O (single isomer, unassigned) [Ex. 107a]

Structure (SMILES): Cc1cc2[nH]ncc2c(-c2c(F)cc3c(N4C[C@H]5CC[C@@](C)(C4)N5)nc(OC[C@@]45CCCN4C[C@H](F)C5)nc3c2F)c1OC(F)(F)F (single isomer, unassigned) [Ex. 126a]
IC50 [1, 3]: 1240 nM
IC50 [2]: 8.59 nM

Structure (SMILES): Cc1cc2[nH]ncc2c(-c2c(F)cc3c(N4C[C@H]5CC[C@@](C)(C4)N5)nc(OC[C@@]45CCCN4C[C@H](F)C5)nc3c2F)c1OC(F)(F)F (single isomer, unassigned) [Ex. 126b]
IC50 [1, 3]: 3460 nM
IC50 [2]: 67.9 nM

Structure (SMILES): Cc1cc2[nH]nc(C)c2c(-c2c(F)cc3c(N4CC5CCC(C4)N5)nc(OC[C@@]45CCCN4C[C@H](F)C5)nc3c2F)c1C(F)(F)F (single isomer, unassigned) [Ex. 128a]
IC50 [1, 3]: 43.4 nM
IC50 [2]: 1.28 nM

Structure (SMILES): Cc1cc2[nH]nc(C)c2c(-c2c(F)cc3c(N4CC5CCC(C4)N5)nc(OC[C@@]45CCCN4C[C@H](F)C5)nc3c2F)c1C(F)(F)F (single isomer, unassigned) [Ex. 128b]
IC50 [1, 3]: 2850 nM
IC50 [2]: 232 nM

Structure (SMILES): C[C@]12CC[C@H](CN(c3nc(OC[C@@]45CCCN4C[C@H](F)C5)nc4c(F)c(-c5cc(O)cc(Cl)c5Cl)c(F)cc34)C1)N2 (single isomer, unassigned) [Ex. 129a, HCl]
IC50 [1, 4]: 2810 nM
IC50 [2]: 17.7 nM

Structure (SMILES): C[C@]12CC[C@H](CN(c3nc(OC[C@@]45CCCN4C[C@H](F)C5)nc4c(F)c(-c5cc(O)cc(Cl)c5Cl)c(F)cc34)C1)N2 (single isomer, unassigned) [Ex. 129b, HCl]
IC50 ([1]; read-out: IC50 (nM) pERK (cell with FBS 10%), AsPC-1 cells, 10% fetal bovine serum, 2 hours, ratio of p-Erk vs total Erk, HCl): 3010 nM
IC50 [2]: 14.1 nM

Structure (SMILES): Nc1nc2c(-c3c(Cl)cc4c(N5CC6CCC(C5)N6)nc(OC[C@@]56CCCN5C[C@H](F)C6)nc4c3F)c(F)cc(F)c2o1 (single isomer, unassigned) [Ex. 133a]
IC50 [1, 3]: 3470 nM
IC50 [2]: 61.4 nM

Structure (SMILES): Nc1nc2c(-c3c(Cl)cc4c(N5CC6CCC(C5)N6)nc(OC[C@@]56CCCN5C[C@H](F)C6)nc4c3F)c(F)cc(F)c2o1 (single isomer, unassigned) [Ex. 133b]
IC50 [1, 3]: 410 nM
IC50 [2]: 1.16 nM

Structure (SMILES): C#Cc1c(F)ccc2cccc(-c3c(F)cc4c(N5CC6CCC(C5)N6)nc(OC[C@@]56CCCN5[C@H](CO)CC6)nc4c3F)c12 (single isomer, unassigned) [Ex. 142]
IC50 [1, 4]: 384 nM
IC50 [2]: 1.57 nM

Structure (SMILES): C#Cc1cccc2cc(O)c(Cl)c(-c3c(F)cc4c(N5CC6CC[C@@](C)(C5)N6)nc(OC[C@@]56CCCN5C[C@H](F)C6)nc4c3F)c12 (single isomer, unassigned) [Ex. 143a]
IC50 [1, 3]: 53.5 nM
IC50 [2]: 0.86 nM

Structure (SMILES): C#Cc1cccc2cc(O)c(Cl)c(-c3c(F)cc4c(N5CC6CC[C@@](C)(C5)N6)nc(OC[C@@]56CCCN5C[C@H](F)C6)nc4c3F)c12 (single isomer, unassigned) [Ex. 143b]
IC50 [1, 3]: 2500 nM
IC50 [2]: 74.5 nM

Structure (SMILES): N#Cc1c(N)sc2c(F)ccc(-c3c(F)cc4c(N5C[C@H]6CC[C@@H](C5)N6)nc(OC[C@@]56CCCN5C[C@H](F)C6)nc4c3F)c12 (single isomer, unassigned) [Ex. 144a]
IC50 [1, 3]: 83.9 nM
IC50 [2]: 2.03 nM

Structure (SMILES): N#Cc1c(N)sc2c(F)ccc(-c3c(F)cc4c(N5C[C@H]6CC[C@@H](C5)N6)nc(OC[C@@]56CCCN5C[C@H](F)C6)nc4c3F)c12 (single isomer, unassigned) [Ex. 144b]
IC50 [1, 3]: 392 nM
IC50 [2]: 20 nM

Structure (SMILES): Nc1cc(F)c(C(F)(F)F)c(-c2c(F)cc3c(N4CC5CCC(C4)N5)nc(OC[C@@]45CCCN4C[C@H](F)C5)nc3c2F)c1F (single isomer, unassigned) [Ex. 145a]
IC50 [1, 3]: 19400 nM
IC50 [2]: 1270 nM

Structure (SMILES): Nc1cc(F)c(C(F)(F)F)c(-c2c(F)cc3c(N4CC5CCC(C4)N5)nc(OC[C@@]45CCCN4C[C@H](F)C5)nc3c2F)c1F (single isomer, unassigned) [Ex. 145b]
IC50 [1, 3]: 358 nM
IC50 [2]: 14.1 nM

Structure (SMILES): Cc1cc(N)c(F)c(-c2c(F)cc3c(N4CC5CCC(C4)N5)nc(OC[C@@]45CCCN4C[C@H](F)C5)nc3c2F)c1C(F)(F)F (single isomer, unassigned) [Ex. 146a]
IC50 [1, 4]: 185 nM
IC50 [2]: 1.56 nM

Structure (SMILES): C#Cc1cccc2scc(-c3c(F)cc4c(N5CC6CC[C@@](C)(C5)N6)nc(OCC5(CN6CCOCC6)CC5)nc4c3F)c12 (single isomer, unassigned) [Ex. 147a]
IC50 [1, 4]: 16600 nM
IC50 [2]: 400 nM

Structure (SMILES): C#Cc1cccc2scc(-c3c(F)cc4c(N5CC6CC[C@@](C)(C5)N6)nc(OCC5(CN6CCOCC6)CC5)nc4c3F)c12 (single isomer, unassigned) [Ex. 147b]
IC50 [1, 3]: 10200 nM
IC50 [2]: 429 nM

Structure (SMILES): C#Cc1cccc2cc(N)nc(-c3c(F)cc4c(N5CC6CCC(C5)N6)nc(OC[C@@]56CCCN5C[C@H](F)C6)nc4c3F)c12 (single isomer, unassigned) [Ex. 148a]
IC50 [1, 3]: 235 nM
IC50 [2]: 13.6 nM

Structure (SMILES): C#Cc1cccc2cc(N)nc(-c3c(F)cc4c(N5CC6CCC(C5)N6)nc(OC[C@@]56CCCN5C[C@H](F)C6)nc4c3F)c12 (single isomer, unassigned) [Ex. 148b]
IC50 [1, 3]: 8550 nM
IC50 [2]: 751 nM

Structure (SMILES): C#Cc1c(F)ccc2cccc(-c3c(F)cc4c(N5C[C@H]6CC[C@@](C)(C5)N6)nc(OC[C@@]56CCCN5[C@H](CF)CC6)nc4c3F)c12 (single isomer, unassigned) [Ex. 149]
IC50 [1, 4]: 4490 nM
IC50 [2]: 103 nM

Structure (SMILES): Cc1nc(N)c(F)c(-c2c(F)cc3c(N4CC5CCC(C4)N5)nc(OC[C@@]45CCCN4C[C@H](F)C5)nc3c2F)c1C(F)(F)F (single isomer, unassigned) [Ex. 151a]
IC50 [1, 3]: 3950 nM
IC50 [2]: 1930 nM

Structure (SMILES): Cc1nc(N)c(F)c(-c2c(F)cc3c(N4CC5CCC(C4)N5)nc(OC[C@@]45CCCN4C[C@H](F)C5)nc3c2F)c1C(F)(F)F (single isomer, unassigned) [Ex. 151b]
IC50 [1, 3]: 278 nM
IC50 [2]: 21.6 nM

Structure (SMILES): Nc1cc(Cl)c(C(F)(F)F)c(-c2c(Cl)cc3c(N4CC5CCC(C4)N5)nc(OC[C@@]45CCCN4C[C@H](F)C5)nc3c2F)n1 (single isomer, unassigned) [Ex. 154a]
IC50 [1, 4]: 52.1 nM
IC50 [2]: 1.1 nM

Structure (SMILES): Nc1cc(-c2c(Cl)cc3c(N4CC5CCC(C4)N5)nc(OC[C@@]45CCCN4C[C@H](F)C5)nc3c2F)c(C(F)(F)F)c(Cl)n1 (single isomer, unassigned) [Ex. 155b]
IC50 [1, 4]: 144 nM
IC50 [2]: 2.33 nM

Structure (SMILES): Oc1cc(-c2c(F)cc3c(N4CC5CCC(C4)N5)nc(OC[C@@]45CCCN4C[C@H](F)C5)nc3c2F)c2c(Cl)cccc2c1 (single isomer, unassigned) [Ex. 160a]
IC50 [1, 3]: 882 nM
IC50 [2]: 3.3 nM

Structure (SMILES): Oc1cc(-c2c(F)cc3c(N4CC5CCC(C4)N5)nc(OC[C@@]45CCCN4C[C@H](F)C5)nc3c2F)c2c(Cl)cccc2c1 (single isomer, unassigned) [Ex. 160b]
IC50 [1, 3]: 12500 nM
IC50 [2]: 367 nM

Structure (SMILES): CCC(=O)Oc1cc(-c2c(F)cc3c(N4CC5CC[C@@](C)(C4)N5)nc(OC[C@@]45CCCN4C[C@H](F)C5)nc3c2F)c2c(Cl)cccc2c1 (single isomer, unassigned) [Ex. 162a]
IC50 [1, 3]: 659 nM
IC50 [2]: 23.1 nM

Structure (SMILES): CCC(=O)Oc1cc(-c2c(F)cc3c(N4CC5CC[C@@](C)(C4)N5)nc(OC[C@@]45CCCN4C[C@H](F)C5)nc3c2F)c2c(Cl)cccc2c1 (single isomer, unassigned) [Ex. 162b]
IC50 [1, 3]: 2390 nM
IC50 [2]: 495 nM

From patent publication US20240239788A1, “SMALL MOLECULE INHIBITORS OF KRAS G12D MUTANT” (Merck Sharp & Dohme LLC, priority 2021, published 2024)
